# Laboratory results reported in ChEMBL document CHEMBL4184340, “Fragment-Based Discovery of a Potent, Orally Bioavailable Inhibitor That Modulates the Phosphorylation and Catalytic Activity of ERK1/2” (J Med Chem, 2018).
# How the values were obtained:
# [1] = in vivo; details: Balb/c, mouse, po, 5 mg/kg
# [2] = in vivo; details: Balb/c, mouse, po, 5 mg/kg; remark: listed apart in the source
# [3] = in vivo; details: Balb/c, mouse, iv, 0.5 mg/kg
# [4] = in vivo; details: Balb/c, mouse, po, 5 mg/kg; remark: listed apart in the source
# [5] = in vivo; details: Balb/c, mouse, iv, 0.5 mg/kg; remark: listed apart in the source
# [6] = in vitro; details: human, Caco-2
bioavailability at 24 h [1] [%],half-life at 24 h [2] [min],clearance at 24 h [3] [mL/min/kg],AUC at 24 h [4] [ng·h/mL],Vd at 24 h [5] [L/kg],"Papp at 1 h, 10 µM [6] [×10⁻⁶ cm/s]",Compound
32,60,3.8,6900,0.2,,O=C(CN1Cc2ccc(-c3nc(NC4CCOCC4)ncc3Cl)cc2C1=O)NCc1ccccc1
30,42,4.2,5900,0.1,22,CN(C(=O)CN1Cc2ccc(-c3nc(NC4CCOCC4)ncc3Cl)cc2C1=O)C(C)(C)C
8,60,14,530,0.2,17,CC(C)(C)NC(=O)CN1Cc2ccc(-c3nc(NC4CCOCC4)ncc3Cl)cc2C1=O
59,48,13,3700,0.6,6.6,Cc1cccc([C@@H](CO)NC(=O)[C@@H](C)N2Cc3ccc(-c4nc(NC5CCOCC5)ncc4Cl)cc3C2=O)c1
1,60,17,50,0.05,19,COCCN1Cc2ccc(-c3nc(NC4CCOCC4)ncc3Cl)cc2C1=O
32,120,15,1800,0.2,40,O=C1c2cc(-c3nc(NC4CCOCC4)ncc3Cl)ccc2CN1CCN1CCOCC1
41,180,11,3000,0.6,0.7,"O=C(CN1Cc2ccc(-c3nc(NC4CCOCC4)ncc3Cl)cc2C1=O)NC(CO)c1ccccc1 (single isomer, unassigned)"
70,42,23,2600,1,13,C[C@H](C(=O)N[C@H](CO)c1ccccc1)N1Cc2ccc(-c3nc(NC4CCOCC4)ncc3Cl)cc2C1=O
